Data: PMC6026642 (Frontiers in Chemistry, 2018)
Read-outs that look alike come from different tables or passages of the source. No end group written: not given here.

Experiments:
[1] = rat, in vivo, 2 mg/kg
[2] = in vivo; details: both, Wistar, rat, 2 mg/kg
[3] = tested on: PEDV; assay type: cell-based, porcine epidemic diarrhea virus
[4] = tested on: PRV; assay type: cell-based, pseudorabies virus; details: TCID50 based, R = A2/A1 × 100%; 50 μg/ml peptide (method says 50 μM, 1 h incubation); Vero and PK-15 cells; mean

FFHHIFRGIVHVGKTIHRLVTG [Piscidin 1]
AUC0−∞ [1]: 78.40 ± 8.64 µg·h/g | CLb (body clearance) [1]: 0.433 ± 0.13 mL/min/kg | Cmax [1]: 1.67 ± 0.19 µg/g | Ke (elimination rate constant) [1]: 0.034 ± 0.06 h⁻¹ | MRT [1]: 36.45 ± 2.45 h | Ratio of AUC0−∞, ileum content / serum [1]: 4.14 | Ratio of CLb, ileum content / serum [1]: 0.273 | Ratio of Cmax, ileum content / serum [1]: 0.71 | Ratio of Ke, ileum content / serum [1]: 1.17 | Ratio of MRT, ileum content / serum [1]: 1.21 | Ratio of T1/2, ileum content / serum [1]: 0.858 | Ratio of Tmax, ileum content / serum [1]: 24.38 | T1/2 (elimination half-life) [1]: 20.16 ± 1.76 h | Tmax [1]: 8.12 ± 1.02 h | AUC(0-inf) ([2]; im): 19000 ± 1370 ng·h/mL | Cmax ([2]; im): 2370 ± 160 ng/mL | MRT ([2]; im): 30.1 ± 2.46 h | Tmax ([2]; im): 0.333 ± 0.151 h | bioavailability ([2]; im): 73.2% | half-life ([2]; im): 23.5 ± 2.43 h | AUC(0-inf) ([2]; iv): 25900 ± 3210 ng·h/mL | MRT ([2]; iv): 22.8 ± 2.43 h | clearance ([2]; iv): 1.12 mL/min/kg | half-life ([2]; iv): 17 ± 1.43 h | AUC(0-inf) ([2]; po): 9630 ± 870 ng·h/mL | Cmax ([2]; po): 730 ± 80 ng/mL | MRT ([2]; po): 26.8 ± 2.89 h | Tmax ([2]; po): 0.5 ± 0.23 h | bioavailability ([2]; po): 37.2% | half-life ([2]; po): 19.5 ± 1.67 h

FKCRRWQWRMKKLGAPSITCVRRAF [lactoferricin]
virus survived ratio of PEDV [3]: 93% | virus survived ratio of PRV [4]: 82%
